# Test system: Plutella xylostella
# Assay: Plutella xylostella, leaf dip method
# Assay type: in vivo
# Conditions: foliar, cabbage leaf dip, second instar larvae, 72 h after release, dead + moribund vs untreated control, read-out: percent mortality
# Protocol: The leaf dip method was used for testing, wherein the required quantity of the compound was weighed and dissolved in a tube containing solvent solution. The tube was put on a vortex at 2000 rpm for 90 min for proper mixing, then diluted with 0.01% Triton-X solution to get the desired test concentration. Cabbage leaves were dipped in the compound solution for 10 seconds, shade dried for 20 min and then transferred into the cells of bioassay trays. A single second instar larva was released into each cell and the tray was covered with a lid. The bio-assay trays were then kept under laboratory conditions at a temperature of 25° C. and a relative humidity of 70%. Observations on dead, moribund and alive larvae were recorded 72 h after the release. Percent mortality was calculated by combining dead and moribund larvae and comparing the result to the one of the untreated control.
row,SMILES,mortality at 300 ppm
1,"CCS(=O)(=O)c1cc(-c2cncnc2)cnc1-c1ccn2nc(C(F)(F)F)nc2n1 [Compound 135, 5-(3-(ethylsulfonyl)-5-(pyrimidin-5-yl)pyridin-2-yl)-2-(trifluoromethyl)-[1,2,4]triazolo[1,5-a]pyrimidine]",≥ 70%
2,"CCS(=O)(=O)c1ccc(C)nc1-c1ccn2nc(C(F)(F)F)nc2n1 [Compound 183, 5-(3-(ethylsulfonyl)-6-methylpyridin-2-yl)-2-(trifluoromethyl)-[1,2,4]triazolo[1,5-a]pyrimidine]",≥ 70%
3,"CCS(=O)(=O)c1cc(-c2ccn3nc(C(F)(F)F)cc3n2)cnc1-n1cncn1 [Compound 31, 5-(5-(ethylsulfonyl)-6-(1H-1,2,4-triazol-1-yl)pyridin-3-yl)-2-(trifluoromethyl)pyrazolo[1,5-a]pyrimidine]",≥ 70%
4,CCS(=O)(=O)c1cc(-n2cc(Cl)cn2)cnc1-c1ccn2nc(C(F)(F)F)cc2n1 [Compound 89],≥ 70%
5,"CCS(=O)(=O)c1ccc(-c2ccc(OC(F)(F)C(F)F)cc2)nc1-c1ccn2nc(C(F)(F)F)cc2n1 [Compound 28, 5-(3-(ethylsulfonyl)-6-(4-(1,1,2,2-tetrafluoroethoxy)phenyl)pyridin-2-yl)-2-(trifluoromethyl)pyrazolo[1,5-a]pyrimidine]",≥ 70%
6,"CCS(=O)(=O)c1ccc(OCC(F)(F)F)nc1-c1ccn2nc(C(F)(F)F)cc2n1 [Compound 239, 5-(3-(ethylsulfonyl)-6-(2,2,2-trifluoroethoxy)pyridin-2-yl)-2-(trifluoromethyl)pyrazolo[1,5-a]pyrimidine]",≥ 70%
7,"CCc1cnc(-c2ccn3nc(C(F)(F)F)cc3n2)c(S(=O)(=O)CC)c1 [Compound 211, 5-(5-ethyl-3-(ethylsulfonyl)pyridin-2-yl)-2-(trifluoromethyl)pyrazolo[1,5-a]pyrimidine]",≥ 70%
8,"CCS(=O)(=O)c1cc(-c2cccc(C(F)(F)F)c2)cnc1-c1ncc2nc(C(F)(F)F)n(C)c2n1 [Compound 117, 2-(3-(ethylsulfonyl)-5-(3-(trifluoromethyl)phenyl)pyridin-2-yl)-9-methyl-8-(trifluoromethyl)-9H-purine]",≥ 70%
9,"CCc1ccc(S(=O)(=O)CC)c(-c2ccn3nc(C(F)(F)F)cc3n2)n1 [Compound 209, 5-(6-ethyl-3-(ethylsulfonyl)pyridin-2-yl)-2-(trifluoromethyl)pyrazolo[1,5-a]pyrimidine]",≥ 70%
10,"CCS(=O)(=O)c1ccc(-c2cccc(C#N)c2)nc1-c1ccn2nc(C(F)(F)F)cc2n1 [Compound 23, 3-(5-(ethylsulfonyl)-6-(2-(trifluoromethyl)pyrazolo[1,5-a]pyrimidin-5-yl)pyridin-2-yl)benzonitrile]",≥ 70%
11,"CCS(=O)(=O)c1cc(-n2cnc(Cl)n2)cnc1-c1ccn2nc(C(F)(F)F)nc2n1 [Compound 148, 5-(5-(3-chloro-1H-1,2,4-triazol-1-yl)-3-(ethylsulfonyl)pyridin-2-yl)-2-(trifluoromethyl)-[1,2,4]triazolo[1,5-a]pyrimidine]",≥ 70%
12,"CCS(=O)(=O)c1cc(-c2cc(Cl)cc(Cl)c2)cnc1-c1ncc2nc(C(F)(F)F)n(C)c2n1 [Compound 128, 2-(5-(3,5-dichlorophenyl)-3-(ethylsulfonyl)pyridin-2-yl)-9-methyl-8-(trifluoromethyl)-9H-purine]",≥ 70%
13,"CCS(=O)(=O)c1ccc(C2CC2)nc1-c1ccn2nc(C(F)(F)F)nc2n1 [Compound 180, 5-(6-cyclopropyl-3-(ethylsulfonyl)pyridin-2-yl)-2-(trifluoromethyl)-[1,2,4]triazolo[1,5-a]pyrimidine]",≥ 70%
14,"CCS(=O)(=O)c1ccc(CC#N)nc1-c1ccn2nc(C(F)(F)F)cc2n1 [Compound 217, 2-(5-(ethylsulfonyl)-6-(2-(trifluoromethyl)pyrazolo[1,5-a]pyrimidin-5-yl)pyridin-2-yl)acetonitrile]",≥ 70%
15,"CCSc1cc(-c2ccc(OC(F)(F)C(F)F)cc2)cnc1-c1ccn2nc(C(F)(F)F)cc2n1 [Compound 191, 5-(3-(ethylthio)-5-(4-(1,1,2,2-tetrafluoroethoxy)phenyl)pyridin-2-yl)-2-(trifluoromethyl)pyrazolo[1,5-a]pyrimidine]",≥ 70%
16,"CCS(=O)(=O)c1cc(-c2ccn3nc(C(F)(F)F)cc3n2)cnc1-n1ncn(-c2ccc(Cl)cc2)c1=O [Compound 80, 4-(4-chlorophenyl)-2-(3-(ethylsulfonyl)-5-(2-(trifluoromethyl)pyrazolo[1,5-a]pyrimidin-5-yl)pyridin-2-yl)-2,4-dihydro-3H-1,2,4-triazol-3-one]",≥ 70%
17,"CCS(=O)(=O)c1cc(-n2cnc(Br)n2)cnc1-c1ccn2nc(C(F)(F)F)cc2n1 [Compound 177, 5-(5-(3-bromo-1H-1,2,4-triazol-1-yl)-3-(ethylsulfonyl)pyridin-2-yl)-2-(trifluoromethyl)pyrazolo[1,5-a]pyrimidine]",≥ 70%

row,SMILES,mortality at 300 ppm
1,"CCS(=O)(=O)c1cc(-c2ccc(OC(F)(F)C(F)F)cc2)cnc1-c1ccn2nc(C(F)(F)F)nc2n1 [Compound 104, 5-(3-(ethylsulfonyl)-5-(4-(1,1,2,2-tetrafluoroethoxy)phenyl)pyridin-2-yl)-2-(trifluoromethyl)-[1,2,4]triazolo[1,5-a]pyrimidine]",≥ 70%
2,"CCS(=O)(=O)c1ccc(OC)nc1-c1ccn2nc(C(F)(F)F)cc2n1 [Compound 226, 5-(3-(ethylsulfonyl)-6-methoxypyridin-2-yl)-2-(trifluoromethyl)pyrazolo[1,5-a]pyrimidine]",≥ 70%
3,"CCS(=O)(=O)c1cc(-c2cccc(OC(F)(F)C(F)F)c2)cnc1-c1ccn2nc(C(F)(F)F)nc2n1 [Compound 144, 5-(3-(ethylsulfonyl)-5-(3-(1,1,2,2-tetrafluoroethoxy)phenyl)pyridin-2-yl)-2-(trifluoromethyl)-[1,2,4]triazolo[1,5-a]pyrimidine]",≥ 70%
4,"CCS(=O)(=O)c1ccc(-n2nc3ccc(C(F)(F)F)cn3c2=O)nc1-c1ccn2nc(C(F)(F)F)cc2n1 [Compound 27, 2-(5-(ethylsulfonyl)-6-(2-(trifluoromethyl)pyrazolo[1,5-a]pyrimidin-5-yl)pyridin-2-yl)-6-(trifluoromethyl)-[1,2,4]triazolo[4,3-a]pyridin-3(2H)-one]",≥ 70%
5,"CCS(=O)(=O)c1ccc(/C=C/C2CC2)nc1-c1ccn2nc(C(F)(F)F)cc2n1 [Compound 216, (E)-5-(6-(2-cyclopropylvinyl)-3-(ethylsulfonyl)pyridin-2-yl)-2-(trifluoromethyl)pyrazolo[1,5-a]pyrimidine]",≥ 70%
6,"CCS(=O)(=O)c1cc(-c2ccc(Cl)cc2)cnc1-c1ncc2nc(C(F)(F)F)n(C)c2n1 [Compound 123, 2-(5-(4-chlorophenyl)-3-(ethylsulfonyl)pyridin-2-yl)-9-methyl-8-(trifluoromethyl)-9H-purine]",≥ 70%
7,"CCOc1ccc(S(=O)(=O)CC)c(-c2ccn3nc(C(F)(F)F)cc3n2)n1 [Compound 227, 5-(6-ethoxy-3-(ethylsulfonyl)pyridin-2-yl)-2-(trifluoromethyl)pyrazolo[1,5-a]pyrimidine]",≥ 70%
8,"CCS(=O)(=O)c1cc(-c2ccc(F)cc2)cnc1-c1ccn2nc(C(F)(F)F)nc2n1 [Compound 105, 5-(3-(ethylsulfonyl)-5-(4-fluorophenyl)pyridin-2-yl)-2-(trifluoromethyl)-[1,2,4]triazolo[1,5-a]pyrimidine]",≥ 70%
9,"CCS(=O)(=O)c1ccc(-c2ccc(C#N)cc2)nc1-c1ccn2nc(C(F)(F)F)cc2n1 [Compound 18, 4-(5-(ethylsulfonyl)-6-(2-(trifluoromethyl)pyrazolo[1,5-a]pyrimidin-5-yl)pyridin-2-yl)benzonitrile]",≥ 70%
10,"CCS(=O)(=O)c1cc(NC2CC2)cnc1-c1ccn2nc(C(F)(F)F)cc2n1 [Compound 170, N-cyclopropyl-5-(ethylsulfonyl)-6-(2-(trifluoromethyl)pyrazolo[1,5-a]pyrimidin-5-yl)pyridin-3-amine]",≥ 70%
11,"CCS(=O)(=O)c1ccc(-n2cncn2)nc1-c1cnc2cc(C(F)(F)F)nn2c1 [Compound 54, 6-(3-(ethylsulfonyl)-6-(1H-1,2,4-triazol-1-yl)pyridin-2-yl)-2-(trifluoromethyl)pyrazolo[1,5-a]pyrimidine]",≥ 70%
12,"CCSc1cc(-c2ccnn2C)cnc1-c1ccn2nc(C(F)(F)F)cc2n1 [Compound 67, 5-(3-(ethylthio)-5-(1-methyl-1H-pyrazol-5-yl)pyridin-2-yl)-2-(trifluoromethyl)pyrazolo[1,5-a]pyrimidine]",≥ 70%
13,"CCS(=O)(=O)c1ccc(-n2cncn2)nc1-c1ccn2nc(C(F)(F)F)cc2n1 [Compound 3, 5-(3-(ethylsulfonyl)-6-(1H-1,2,4-triazol-1-yl)pyridin-2-yl)-2-(trifluoromethyl)pyrazolo[1,5-a]pyrimidine]",≥ 70%
14,"CCS(=O)(=O)c1cc(NC(=O)C2CC2)cnc1-c1ccn2nc(C(F)(F)F)cc2n1 [Compound 233, N-(5-(ethylsulfonyl)-6-(2-(trifluoromethyl)pyrazolo[1,5-a]pyrimidin-5-yl)pyridin-3-yl)cyclopropanecarboxamide]",≥ 70%
15,"CCS(=O)(=O)c1ccc(-n2ncn(-c3ccc(OC(F)(F)F)cc3)c2=O)nc1-c1ccn2nc(C(F)(F)F)cc2n1 [Compound 10, 2-(5-(ethylsulfonyl)-6-(2-(trifluoromethyl)pyrazolo[1,5-a]pyrimidin-5-yl)pyridin-2-yl)-4-(4-(trifluoromethoxy)phenyl)-2,4-dihydro-3H-1,2,4-triazol-3-one]",≥ 70%
16,"CCSc1ccc(C)nc1-c1ccn2nc(C(F)(F)F)cc2n1 [Compound 181, 5-(3-(ethylthio)-6-methylpyridin-2-yl)-2-(trifluoromethyl)pyrazolo[1,5-a]pyrimidine]",≥ 70%
